# From US12472448B2, “Compact hydroxamate-based affinity tags for artificially tagging biological macromolecules” (The Board of Trustees of the Leland Stanford Junior …, priority 2019, dated 2025)
# Assays:
# [1] = test system: GFP; assay type: cell-based, S. cerevisiae; details: 365-nm diode, 1 minute
# Description: S. cervisae was made to express GFP containing isoazipropyl chloride or isoazibutyl chloride as described above. These cells were illuminated by a 365-nm diode (a Prizmatix Mic-LED-365 powered by a BLCC-02 at 0.5 ampere) for 1 minute and then cryogenically ground. Their protein was run on a denaturing SDS-PAGE gel to look for higher-molecular weight species resulting from crosslinking between the two GFP monomers (see e.g., FIG. 41).
# [2] = N-tagging of Alexa-350 ADNGK peptide with orthogonal affinity tags, reverse phase HPLC; details: 5 mM of each N-tag, 4 hours at 37° C., pH 7.5
# Description: A peptide with the sequence ADNGK (SEQ ID NO: 1) was purchased with its N-terminal Fmoc protecting group still in place. This peptide was reacted with NHS-activated fluorophore Alexa-350 (ThermoFisher, A10168) before the Fmoc group was removed using piperidine and the peptide was purified by preparative HPLC.
# We treated this peptide with the N-tags form examples 7 and 10, either separately or in combination. This labeling done for 4 hours at 37° C. with 5 mM of each N-tag, 100 mM of sodium phosphate buffered to pH 7.5 and 10% acetonitrile. The resulting species were analyzed by reverse phase HPLC (see, e.g., FIG. 14).
# [3] = biological target: GST (Schistosoma japonicum, UniProt P08515); experiment: Photo-crosslinking of aziethyl glutathione to GST, whole-protein LCMS; assay type: biochemical; details: 1 mM, 7 mg/ml GST, 337-nm light, 30 minutes
# Sequence of GST (P08515 2-218): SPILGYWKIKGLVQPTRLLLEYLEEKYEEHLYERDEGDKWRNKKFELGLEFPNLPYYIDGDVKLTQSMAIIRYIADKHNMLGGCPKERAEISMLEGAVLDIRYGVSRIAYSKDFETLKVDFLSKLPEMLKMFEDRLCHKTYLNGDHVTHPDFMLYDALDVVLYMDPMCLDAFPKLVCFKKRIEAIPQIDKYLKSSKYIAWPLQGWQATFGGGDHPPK
# Description: Aziethyl chloride was anchored to glutathione. 25 mg of glutathione and 5 mg of TCEP were dissolved in 2 ml of methanol, 1 ml of water and 50 ul of TEA. To this were added 41 ul of the aziethyl chloride-alkene mixture synthesized in example 19. The mixture was stirred overnight, lyophilized and resuspended in 2.6 ml of water to make a 30-mM solution. This aziethyl glutathione solution was used without any purification.
# 7 mg/ml of GST was incubated with 0 or 1 mM of aziethyl glutathione. This mixture was placed beneath 337-nm light source (Laser Science, Inc. VSL-337ND-S) for either 0 or 30 minutes and then subjected to whole-protein LCMS.
# [4] = test system: modified RNase H containing a single cysteine; experiment: In vitro intraprotein photo-crosslinking, denaturing SDS-PAGE; assay type: biochemical; details: mercury arc lamp, 310-370 nm
# Description: A modified RNase H containing a single cysteine was expressed, purified, alkylated with isoazipropyl chloride and repurified as above.
# The alkylated protein was illuminated with a mercury arc lamp through filters selecting for light in the 310-370-nm range.
# [5] = test system: modified RNase H containing a single cysteine; experiment: Chemical anchoring of crosslinker to protein cysteine, Ellman's assay; assay type: biochemical; details: 10 ul crosslinker, 1 hour at 37° C., pH 8.6
# Description: A modified RNase H containing a single cysteine was expressed in E. coli and purified and purified by Ni-IMAC and heparin chromatography.
# To 2.75 mg of this protein in 20 ml of 100-mM bicine, 1-mM TCEP, 600-mM NaCl, 100-mM KCl, pH 8.6 was added either 0 or 10 ul of isoazipropyl chloride. These mixtures were incubated for 1 hour at 37° C. The proteins were repurified by heparin chromatography to remove TCEP and isoazipropyl chloride, and the number of free cysteines per protein was determined using Ellman's assay.
molecule,measurement,setting,value
"CC1(CSC[C@H](N)C(=O)O)N=N1 [Isoazipropyl cysteine, isoazipropyl cysteine]",interprotein crosslinking of the proteins,[1],2%
allylcysteine [reference compound],interprotein crosslinking of the proteins,[1],lack of similar crosslinking
O=Cc1cccc(C(=O)NO)n1 [hydroxamate affinity tag],labeling of peptide N-termini,[2],efficiently label the peptides
aziethyl glutathione,GST molecules shifted as expected from covalent crosslinking,[3],40%
"CC1(CCSC[C@H](N)C(=O)O)N=N1 [Isoazibutyl cysteine, isoazibutyl cysteine]",interprotein crosslinking of the proteins,[1],8%
"NC(=O)CI [iodoacetamide, reference compound]",appearance of faster-migrating band (intramolecular crosslink),[4],did not appear
C[C@@H]1NC(=O)N[C@@H]1CCCCCC(=O)N(C)Cc1cccc(C=O)n1 [compound 10],labeling of peptide N-termini,[2],efficiently label the peptides
CC1(CCl)N=N1 [isoazipropyl chloride],appearance of faster-migrating band (intramolecular crosslink),[4],new faster-migrating band to appear
same,free cysteines per protein,[5],0.15
same,protein's cysteines anchored by the crosslinker,[5],85%
